Molecules are shown by their SMILES. Values joined by “and” are separate entries in the source; they are usually repeats but may differ in a detail not shown here. Identical values can stand only once. Toxic doses and inconclusive results are not listed. Square brackets hold non-standard residues; d marks the D form. Peptide text beside a SMILES is read from it. ξ: configuration not given here. ξA = CC(N)C(=O)O

The assay concerns P388 leukemia ip, CD2F1 mice, survival T/C. The assay can be described thus: NCI In Vivo Anticancer Drug Screen. Data for tumor model P388 Leukemia (intraperitoneal) in CD2F1 (CDF1) mice. The following applies: endpoint: median survival time, higher = longer survival. In short, it runs like this:
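Mice carrying the transplanted tumor received test compound or vehicle. Survival was recorded in each group, and the value is the treated-group measurement divided by that of the vehicle-treated control group.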

Setting [1] is: dose: 60.0 mg/kg/injection, schedule: Q01DX005 (ip), vehicle: saline with Tween-80.
[2] abbreviates: dose: 120.0 mg/kg/injection, schedule: Q01DX005 (ip), vehicle: saline with Tween-80.
Setting [3] is: dose: 240.0 mg/kg/injection, schedule: Q01DX005 (ip), vehicle: saline with Tween-80.
Setting [4] is: dose: 50.0 mg/kg/injection, schedule: Q01DX005 (ip), vehicle: saline with Tween-80.
The mark [5] stands for this setting: dose: 100.0 mg/kg/injection, schedule: Q01DX005 (ip), vehicle: saline with Tween-80.
[6] abbreviates: dose: 50.0 mg/kg/injection, schedule: Q01DX005 (ip), vehicle: Klucel (hydroxypropylcellulose) (HPC).
Where [7] appears, read: dose: 100.0 mg/kg/injection, schedule: Q01DX005 (ip), vehicle: Klucel (hydroxypropylcellulose) (HPC).
Setting [8] is: dose: 200.0 mg/kg/injection, schedule: Q01DX005 (ip), vehicle: Klucel (hydroxypropylcellulose) (HPC).
Where [9] appears, read: dose: 50.0 mg/kg/injection, schedule: Q01DX009 (ip), vehicle: saline.
[10] abbreviates: dose: 100.0 mg/kg/injection, schedule: Q01DX009 (ip), vehicle: saline.
Where [11] appears, read: dose: 200.0 mg/kg/injection, schedule: Q01DX009 (ip), vehicle: saline.
[12] abbreviates: dose: 100.0 mg/kg/injection, schedule: Q01DX009 (ip), vehicle: saline with Tween-80.
Setting [13] is: dose: 200.0 mg/kg/injection, schedule: Q01DX009 (ip), vehicle: saline with Tween-80.
Where [14] appears, read: dose: 50.0 mg/kg/injection, schedule: Q01DX009 (ip), vehicle: Klucel (hydroxypropylcellulose) (HPC).
The mark [15] stands for this setting: dose: 100.0 mg/kg/injection, schedule: Q01DX009 (ip), vehicle: Klucel (hydroxypropylcellulose) (HPC).
Setting [16] is: dose: 200.0 mg/kg/injection, schedule: Q01DX009 (ip), vehicle: Klucel (hydroxypropylcellulose) (HPC).
Setting [17] is: dose: 100.0 mg/kg/injection, schedule: Q01DX001 (ip), vehicle: saline with Tween-80.
[18] abbreviates: dose: 200.0 mg/kg/injection, schedule: Q01DX001 (ip), vehicle: saline with Tween-80.

With `CCOC(=O)C(Cc1ccc(N(CCCl)CCCl)cc1)NC(=O)C(C)NC(C)=O` (stereo not drawn), the T/C is 108 % of control (dose: 5.0 mg/kg/injection, schedule: Q04DX003 (ip), vehicle: water); 111 % of control and 113 % of control (dose: 10.0 mg/kg/injection, schedule: Q04DX003 (ip), vehicle: water); 122 % of control (dose: 40.0 mg/kg/injection, schedule: Q04DX003 (ip), vehicle: water).
`COC(=O)C1=C(C(=O)OC)SC(=C2C3=C(SC(C(=O)OC)=C(C(=O)OC)S3)c3ccccc32)S1`: the T/C was 96 % of control (dose: 30.0 mg/kg/injection, schedule: Q01DX005 (ip), vehicle: Klucel (hydroxypropylcellulose) (HPC)); 87 % of control and 91 % of control (dose: 60.0 mg/kg/injection, schedule: Q01DX005 (ip), vehicle: Klucel (hydroxypropylcellulose) (HPC)); 89 % of control (dose: 120.0 mg/kg/injection, schedule: Q01DX005 (ip), vehicle: Klucel (hydroxypropylcellulose) (HPC)); 86 % of control (dose: 240.0 mg/kg/injection, schedule: Q01DX005 (ip), vehicle: Klucel (hydroxypropylcellulose) (HPC)).
With `O=CC(CO)CC(C=O)n1cnc2c(=O)[nH]cnc21` (stereo not drawn), the T/C reads like this: (dose: 150.0 mg/kg/injection, schedule: Q01DX005 (ip), vehicle: saline) 155 % of control and 158 % of control; (dose: 300.0 mg/kg/injection, schedule: Q01DX005 (ip), vehicle: saline) 165 % of control and 174 % of control.
In the case of `CC(=O)CS(=O)(=O)c1ccc(NC(C)=O)cc1`, the T/C was 105 % of control (dose: 50.0 mg/kg/injection, schedule: Q01DX009 (ip), vehicle: suspension in saline); 94 % of control (dose: 100.0 mg/kg/injection, schedule: Q01DX009 (ip), vehicle: suspension in saline); 101 % of control (dose: 200.0 mg/kg/injection, schedule: Q01DX009 (ip), vehicle: suspension in saline).
Regarding `COc1cc2c(c(OC)c1)C(O)=C1C(=O)C3C(O)=C(C(=O)NC(C)(C)C)C(=O)C(NC(=S)c4ccccc4)C3CC1C2` (stereo not drawn), the T/C is 92 % of control under setting [1], 94 % of control under setting [2] and 101 % of control under setting [3].
With `C#Cc1cccc(N=Cc2cc(Br)cc(OC)c2O)c1`, the T/C reads like this: under setting [4], 90 % of control; under setting [5], 92 % of control; (dose: 200.0 mg/kg/injection, schedule: Q01DX005 (ip), vehicle: saline with Tween-80) 111 % of control.
Consider `CCOC(=O)C1=C(C)/C(=C/c2[n-]c(Cl)c(C)c2C(=O)OCC)N=C1C.CCOC(=O)C1=C(C)/C(=C/c2[n-]c(Cl)c(C)c2C(=O)OCC)N=C1C.[Ni+2]`, for which the T/C reads like this: under setting [6], 102 % of control; under setting [7], 114 % of control; under setting [8], 102 % of control.
As for `CCCCCCc1cc(C(=O)NN)c2ccccc2n1`, the T/C by setting is: under setting [6], 102 % of control; under setting [7], 99 % of control; under setting [8], 96 % of control.
On to `NC1CCCC1C(=O)O` (stereo not drawn), for which the T/C reads like this: under setting [9], 96 % of control; under setting [10], 100 % of control; under setting [11], 102 % of control.
With `C/C(=N\N=Nc1ccc(N(C)C)cc1)c1ccccc1`, the T/C (dose: 60.0 mg/kg/injection, schedule: Q01DX005 (ip), vehicle: Klucel + Tween-80) is 100 % of control and the T/C (dose: 120.0 mg/kg/injection, schedule: Q01DX005 (ip), vehicle: Klucel + Tween-80) is 99 % of control.
`CC(NC(=O)CNC(=O)CNC(=O)CNC(=O)CN)C(=O)O` (stereo not drawn) (H-GGGG[ξA]-OH): the T/C is, setting by setting: (dose: 50.0 mg/kg/injection, schedule: Q01DX005 (ip), vehicle: saline) 100 % of control; (dose: 100.0 mg/kg/injection, schedule: Q01DX005 (ip), vehicle: saline) 103 % of control; (dose: 200.0 mg/kg/injection, schedule: Q01DX005 (ip), vehicle: saline) 101 % of control.
For `Nc1nc(/C=C(/O)c2ccccc2)c2ncn(C3OC(CO)C(O)C3O)c2n1` (stereo not drawn), the T/C (dose: 50.0 mg/kg/injection, schedule: Q01DX009 (ip), vehicle: saline with Tween-80) was 106 % of control; the T/C under setting [12] was 103 % of control; the T/C under setting [13] was 114 % of control.
In the case of `Cc1cs/c(=N/N=C2C=CC(=O)C=C2)n1O`, the T/C runs as follows: under setting [14], 102 % of control; under setting [15], 107 % of control; under setting [16], 101 % of control.
Turning to `CC(C)c1nc2ccc(Cl)cc2[nH]1`, the T/C runs as follows: under setting [4], 105 % of control; under setting [5], 100 % of control.
Take `CCCCCCCCOP(=O)(CC(CP(=O)(O)OC)P(=O)(O)OC)OCCCCCCCC` (stereo not drawn): the T/C under setting [6] was 91 % of control, the T/C under setting [7] is 94 % of control and the T/C under setting [8] is 93 % of control.
For `CC(=O)OC1C2=C(C)C(=O)OC2=CC2=CCCC(C)C21C` (stereo not drawn), the T/C is, setting by setting: (dose: 4.0 mg/kg/injection, schedule: Q01DX009 (ip), vehicle: Klucel (hydroxypropylcellulose) (HPC)) 102 % of control; (dose: 8.0 mg/kg/injection, schedule: Q01DX009 (ip), vehicle: Klucel (hydroxypropylcellulose) (HPC)) 91 % of control; (dose: 16.0 mg/kg/injection, schedule: Q01DX009 (ip), vehicle: Klucel (hydroxypropylcellulose) (HPC)) 102 % of control; (dose: 32.0 mg/kg/injection, schedule: Q01DX009 (ip), vehicle: Klucel (hydroxypropylcellulose) (HPC)) 109 % of control.
`CC(=O)n1c(Cl)c(/C=N/NC(N)=S)c2ccccc21`: the T/C is, setting by setting: under setting [17], 86 % of control; under setting [18], 94 % of control; (dose: 400.0 mg/kg/injection, schedule: Q01DX001 (ip), vehicle: saline with Tween-80) 100 % of control.
With `NC(=O)Nc1ccccc1O`, the T/C is 98 % of control under setting [12]; 117 % of control under setting [13]; 107 % of control (dose: 400.0 mg/kg/injection, schedule: Q01DX009 (ip), vehicle: saline with Tween-80).
In the case of `CCC(=O)Oc1ccc(/C=N/NC(N)=S)nc1`, the T/C is, setting by setting: (dose: 12.5 mg/kg/injection, schedule: Q01DX009 (ip), vehicle: saline) 166 % of control; (dose: 25.0 mg/kg/injection, schedule: Q01DX009 (ip), vehicle: saline) 157 % of control; under setting [9], 158 % of control and 164 % of control.
For the compound `CC12CC3(Br)CC(Br)(C1)CC(CC(=O)O)(C2)C3`, the T/C is 103 % of control under setting [14], 112 % of control under setting [15] and 112 % of control under setting [16].
`CCCCCCCC(=O)Nc1cc2c3c(c1)CCCN3CCC2`: the T/C was 100 % of control (dose: 50.0 mg/kg/injection, schedule: Q01DX001 (ip), vehicle: saline with Tween-80); 95 % of control under setting [17]; 90 % of control under setting [18].
On to `CC1=CC(=O)N2CCN=C2S1`, for which the T/C is, setting by setting: (dose: 25.0 mg/kg/injection, schedule: Q04DX003 (ip), vehicle: Klucel (hydroxypropylcellulose) (HPC)) 101 % of control; (dose: 50.0 mg/kg/injection, schedule: Q04DX003 (ip), vehicle: Klucel (hydroxypropylcellulose) (HPC)) 101 % of control; (dose: 100.0 mg/kg/injection, schedule: Q04DX003 (ip), vehicle: Klucel (hydroxypropylcellulose) (HPC)) 111 % of control and 98 % of control; (dose: 200.0 mg/kg/injection, schedule: Q04DX003 (ip), vehicle: Klucel (hydroxypropylcellulose) (HPC)) 111 % of control.
Consider `CCCC1CN2CCc3cc(OC)c(OC)cc3C2CC1=O` (stereo not drawn), for which the T/C under setting [9] is 100 % of control and 104 % of control; the T/C under setting [10] is 112 % of control and 115 % of control; the T/C under setting [11] was 120 % of control.
Turning to `Cc1ccc(C(=O)CC2=NC3NN(c4ccccc4)C(=O)C3=C2CC(=O)c2ccc(C)cc2)cc1` (stereo not drawn), the T/C runs as follows: (dose: 60.0 mg/kg/injection, schedule: Q01DX005 (ip), vehicle: suspension in saline) 94 % of control; (dose: 120.0 mg/kg/injection, schedule: Q01DX005 (ip), vehicle: suspension in saline) 98 % of control; (dose: 240.0 mg/kg/injection, schedule: Q01DX005 (ip), vehicle: suspension in saline) 102 % of control.
Turning to `CC(=O)OC1OC(CS[As](C)C)C(OC(C)=O)C(OC(C)=O)C1OC(C)=O` (stereo not drawn), the T/C is 104 % of control under setting [9], 106 % of control under setting [10] and 104 % of control under setting [11].
`O=c1[nH]cnc2sc3c(c12)CCC3`: the T/C under setting [1] is 100 % of control, the T/C under setting [2] is 88 % of control and the T/C under setting [3] was 94 % of control.

The values are drawn from PubChem BioAssay AID330 (DTP/NCI, 2004).
